This passage reports melting point and IC50 results from US7081460B2, “Quinazoline and quinazoline-like compounds for the treatment of integrin-mediated disorders” (Ortho-McNeil Pharmaceutical, Inc., priority 2001, dated 2006).

One data set has as its target T1, Human αvβ3 (Homo sapiens, UniProt P05106+P06756).
T1 construct: purchased Chemicon International Inc., Temecula, Calif
Kind of data set: In vitro solid phase purified αvβ3 binding assay (vitronectin/αvβ3). An outline of the steps: (§1)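 αvβ3 (1 μg/ml) immobilised in Tris buffer with Ca2+/Mg2+/Mn2+, compounds added 5 min before 5 nM vitronectin, 3 h at 37 °C; bound vitronectin detected by anti-vitronectin antibody/peroxidase ELISA at 490 nm. GPIIb/IIIa coated overnight at 4 °C, biotinylated fibrinogen with compounds 2–4 h RT in modified Tyrodes buffer, avidin-HRP/o-phenylenediamine read at 490 nm.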

In another data set the target is GPIIb/IIIa (Homo sapiens, UniProt P05106+P08514). Kind of data set: In vitro solid phase purified glycoprotein IIb/IIIa binding assay (biotinylated fibrinogen). The gist of the method:
as §1

The mark [1] stands for this setting: isolated human αvβ3, 5 nM vitronectin, read-out: αvβ3 Binding IC50.
Where [2] appears, read: RGD-affinity purified GPIIb/IIIa, biotinylated fibrinogen, read-out: GPIIb/IIIa Binding IC50.

Structures can show the parent of a compound that is named as a salt. Where two headings read alike, the source gives them in different places.

One may read the melting point as the temperature of the solid-liquid transition.

Chain of GPIIb/IIIa (P08514 32-887 limits assumed): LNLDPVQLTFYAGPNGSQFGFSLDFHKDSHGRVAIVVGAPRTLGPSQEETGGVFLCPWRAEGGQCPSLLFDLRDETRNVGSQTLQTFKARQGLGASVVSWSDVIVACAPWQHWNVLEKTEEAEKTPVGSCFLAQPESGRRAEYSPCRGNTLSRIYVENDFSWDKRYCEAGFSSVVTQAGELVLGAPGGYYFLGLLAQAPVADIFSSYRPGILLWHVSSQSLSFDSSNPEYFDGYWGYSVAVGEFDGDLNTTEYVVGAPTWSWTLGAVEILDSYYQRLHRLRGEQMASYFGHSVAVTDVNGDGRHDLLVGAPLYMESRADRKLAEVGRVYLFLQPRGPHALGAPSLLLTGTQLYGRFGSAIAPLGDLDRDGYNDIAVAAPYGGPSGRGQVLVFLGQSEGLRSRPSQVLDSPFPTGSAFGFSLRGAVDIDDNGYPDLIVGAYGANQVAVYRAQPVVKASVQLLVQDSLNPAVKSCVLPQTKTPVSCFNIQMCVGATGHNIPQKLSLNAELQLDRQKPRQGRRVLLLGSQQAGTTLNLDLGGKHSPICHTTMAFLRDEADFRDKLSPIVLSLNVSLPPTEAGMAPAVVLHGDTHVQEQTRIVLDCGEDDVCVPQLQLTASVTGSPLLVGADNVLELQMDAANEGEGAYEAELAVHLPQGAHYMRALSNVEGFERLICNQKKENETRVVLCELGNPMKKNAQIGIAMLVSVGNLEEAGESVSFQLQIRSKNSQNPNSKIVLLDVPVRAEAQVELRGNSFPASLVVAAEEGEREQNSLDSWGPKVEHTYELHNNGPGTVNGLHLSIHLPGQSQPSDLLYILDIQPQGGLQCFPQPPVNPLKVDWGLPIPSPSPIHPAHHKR
Chain of GPIIb/IIIa (P08514 891-1039 partner limits assumed): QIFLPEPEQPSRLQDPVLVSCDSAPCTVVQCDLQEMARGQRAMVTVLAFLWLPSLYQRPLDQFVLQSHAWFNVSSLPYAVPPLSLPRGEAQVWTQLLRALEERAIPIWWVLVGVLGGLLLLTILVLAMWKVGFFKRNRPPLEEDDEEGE
Chain of GPIIb/IIIa (P05106 27-788): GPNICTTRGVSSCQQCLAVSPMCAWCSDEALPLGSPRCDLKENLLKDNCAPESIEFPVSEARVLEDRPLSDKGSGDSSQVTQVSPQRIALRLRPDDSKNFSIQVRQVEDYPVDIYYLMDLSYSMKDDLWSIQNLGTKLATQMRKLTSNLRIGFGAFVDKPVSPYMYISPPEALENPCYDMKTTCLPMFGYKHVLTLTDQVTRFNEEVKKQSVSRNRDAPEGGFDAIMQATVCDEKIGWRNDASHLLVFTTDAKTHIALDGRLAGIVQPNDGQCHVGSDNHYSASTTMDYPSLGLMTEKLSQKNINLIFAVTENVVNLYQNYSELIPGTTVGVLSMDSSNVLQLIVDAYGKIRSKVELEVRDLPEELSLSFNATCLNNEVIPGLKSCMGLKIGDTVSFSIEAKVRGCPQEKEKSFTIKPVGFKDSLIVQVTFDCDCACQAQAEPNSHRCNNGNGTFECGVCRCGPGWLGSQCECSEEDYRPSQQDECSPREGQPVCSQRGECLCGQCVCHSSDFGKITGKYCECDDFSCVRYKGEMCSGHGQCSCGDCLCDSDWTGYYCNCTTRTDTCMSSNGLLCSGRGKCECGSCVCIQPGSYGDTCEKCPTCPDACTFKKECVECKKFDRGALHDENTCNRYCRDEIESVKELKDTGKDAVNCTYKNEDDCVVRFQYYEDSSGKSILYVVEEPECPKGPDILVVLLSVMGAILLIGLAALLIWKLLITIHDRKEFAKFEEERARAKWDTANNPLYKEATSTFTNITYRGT
T1 sequence (P06756 31-889 limits assumed): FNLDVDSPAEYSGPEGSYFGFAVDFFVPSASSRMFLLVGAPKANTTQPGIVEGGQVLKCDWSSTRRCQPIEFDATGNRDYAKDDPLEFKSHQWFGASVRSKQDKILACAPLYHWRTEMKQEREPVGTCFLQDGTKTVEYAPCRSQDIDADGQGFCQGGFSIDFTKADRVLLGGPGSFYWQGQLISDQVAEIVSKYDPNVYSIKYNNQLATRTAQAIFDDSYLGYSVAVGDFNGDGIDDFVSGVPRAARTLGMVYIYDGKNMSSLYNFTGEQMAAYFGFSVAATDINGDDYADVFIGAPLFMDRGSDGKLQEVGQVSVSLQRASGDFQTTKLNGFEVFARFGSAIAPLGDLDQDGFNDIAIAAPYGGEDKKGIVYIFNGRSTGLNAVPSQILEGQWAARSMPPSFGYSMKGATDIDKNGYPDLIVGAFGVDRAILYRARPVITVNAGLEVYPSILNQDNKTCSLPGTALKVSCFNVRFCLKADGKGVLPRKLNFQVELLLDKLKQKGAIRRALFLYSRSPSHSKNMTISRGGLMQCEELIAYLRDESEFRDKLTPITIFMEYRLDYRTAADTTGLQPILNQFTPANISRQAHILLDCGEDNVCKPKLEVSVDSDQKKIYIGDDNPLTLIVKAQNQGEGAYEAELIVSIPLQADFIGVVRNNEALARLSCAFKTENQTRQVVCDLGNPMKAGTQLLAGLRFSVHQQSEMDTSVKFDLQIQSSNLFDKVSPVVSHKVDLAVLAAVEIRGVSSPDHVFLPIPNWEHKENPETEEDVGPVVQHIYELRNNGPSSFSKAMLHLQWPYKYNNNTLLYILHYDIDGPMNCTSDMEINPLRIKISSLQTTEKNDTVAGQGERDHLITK
T1 sequence (P06756 891-1048 partner limits assumed): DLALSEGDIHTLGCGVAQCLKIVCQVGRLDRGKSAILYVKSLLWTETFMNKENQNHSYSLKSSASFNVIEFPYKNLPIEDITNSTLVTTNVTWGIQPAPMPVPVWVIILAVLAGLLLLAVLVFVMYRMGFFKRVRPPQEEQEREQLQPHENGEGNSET
T1 sequence (P05106 27-788): as the sequence (P05106 27-788) above

The compound `Cc1c(C)c(C)c(S(=O)(=O)N[C@@H](Cc2nc3ccc(CCCNc4ccccn4)cc3c(=O)[nH]2)C(=O)O)c(C)c1C` (as salt: HCl) [Compound 11, (αS)-3,4-dihydro-4-oxo-α-[[(2,3,4,5,6-pentamethylphenyl)sulfonyl]amino]-6-[3-(2-pyridinylamino)propyl]-2-quinazolinepropanoic Acid] showed a melting point of 218 to 221 °C.

With `Cc1c(C)c(C)c(S(=O)(=O)N[C@@H](Cc2nc3ccc(/C=C/CNC4=NCCN4)cc3c(=O)[nH]2)C(=O)O)c(C)c1C` (as salt: TFA) [Compound 1, 6-[(1E)-3-[(4,5-dihydro-1H-imidazol-2-yl)amino]-1-propenyl]-(αS)-3,4-dihydro-4-oxo-α-[[(2,3,4,5,6-pentamethylphenyl)sulfonyl]amino]-2-quinazolinepropanoic Acid], the melting point was in the range of 131 to 135 °C.

For `Cc1c(C)c(C)c(S(=O)(=O)N[C@@H](Cc2nc3ccc(/C=C/CNc4ccccn4)cc3c(=O)[nH]2)C(=O)O)c(C)c1C` (as salt: TFA) [Compound 10, (αS)-3,4-dihydro-4-oxo-α-[[(2,3,4,5,6-pentamethylphenyl)sulfonyl]amino]-6-[(1E)-3-(2-pyridinylamino)-1-propenyl]-2-quinazolinepropanoic Acid], the melting point lay in the range of 148 to 151 °C.

Take `O=C(NC/C=C/c1ccc2nc(C[C@H](NS(=O)(=O)Cc3ccccc3)C(=O)O)[nH]c(=O)c2c1)NCc1ccccc1` [Compound 70, (αS)-3,4-dihydro-4-oxo-6-[(1E)-3-[[[(phenylmethyl)amino]carbonyl]amino]-1-propenyl]-α-[[(phenylmethyl)sulfonyl]amino]-2-quinazolinepropanoic acid]: the values for the IC50 at Human αvβ3 (setting [1]) and on GPIIb/IIIa (setting [2]) were 0.55 µM and 3.2 µM, respectively.

In the case of `CC(C)(C)OC(=O)N[C@@H](Cc1nc2ccc(/C=C/CNC3=NCCCCC3)cc2c(=O)[nH]1)C(=O)O` [Compound 71, α-[[(1,1-dimethylethoxy)carbonyl]amino]-(αS)-3,4-dihydro-4-oxo-6-[(1E)-3-[(3,4,5,6-tetrahydro-2H-azepin-7-yl)amino]-1-propenyl]-2-quinazolinepropanoic acid], the IC50 is 0.96 µM on Human αvβ3 (setting [1]) and 12 µM at GPIIb/IIIa (setting [2]).

Consider `O=C(NC/C=C/c1ccc2nc(C[C@H](NS(=O)(=O)c3cccs3)C(=O)O)[nH]c(=O)c2c1)NCc1ccccc1` [Compound 72, (αS)-3,4-dihydro-4-oxo-6-[(1E)-3-[[[(phenylmethyl)amino]carbonyl]amino]-1-propenyl]-α-[(2-thienylsulfonyl)amino]-2-quinazolinepropanoic acid], for which the IC50 at Human αvβ3 (setting [1]) was determined as 1.3 µM; on GPIIb/IIIa (setting [2]), 17 µM.

Take `CCCCS(=O)(=O)N[C@@H](Cc1nc2ccc(/C=C/CNC(=O)NCc3ccccc3)cc2c(=O)[nH]1)C(=O)O` [Compound 73, α-[(butylsulfonyl)amino]-(αS)-3,4-dihydro-4-oxo-6-[(1E)-3-[[[(phenylmethyl)amino]carbonyl]amino]-1-propenyl]-2-quinazolinepropanoic acid]: the IC50 at Human αvβ3 (setting [1]) is 2 µM; on GPIIb/IIIa (setting [2]), over 50 µM.

Regarding `Cc1c(C)c(C)c(S(=O)(=O)N[C@@H](Cc2nc3ccc(/C=C/CNC4=NCCCCC4)cc3c(=O)[nH]2)C(=O)O)c(C)c1C` [Compound 74, (αS)-3,4-dihydro-4-oxo-α-[[(2,3,4,5,6-pentamethylphenyl)sulfonyl]amino]-6-[(1E)-3-[(3,4,5,6-tetrahydro-2H-azepin-7-yl)amino]-1-propenyl]-2-quinazolinepropanoic acid], the IC50 stood at 5.4 µM on Human αvβ3 (setting [1]) and 1.3 µM at GPIIb/IIIa (setting [2]).

As for `Cc1c(C)c(C)c(S(=O)(=O)N[C@@H](Cc2nc3ccc(/C=C/CNC(=O)NC4CCCCC4)cc3c(=O)[nH]2)C(=O)O)c(C)c1C` [Compound 75, 6-[(1E)-3-[[(cyclohexylamino)carbonyl]amino]-1-propenyl]-(αS)-3,4-dihydro-4-oxo-α-[[(2,3,4,5,6-pentamethylphenyl)sulfonyl]amino]-2-quinazolinepropanoic acid], the IC50 at Human αvβ3 (setting [1]) was 0.62 µM; at GPIIb/IIIa (setting [2]) it was 4.9 µM.

As to `O=C(NC/C=C/c1ccc2nc(C[C@H](NS(=O)(=O)CCc3cccc4ccccc34)C(=O)O)[nH]c(=O)c2c1)NCc1ccccc1` [Compound 76, (αS)-3,4-dihydro-α-[[[2-(1-naphthalenyl)ethyl]sulfonyl]amino]-4-oxo-6-[(1E)-3-[[[(phenylmethyl)amino]carbonyl]amino]-1-propenyl]-2-quinazolinepropanoic acid], the results for the IC50 on Human αvβ3 (setting [1]) and on GPIIb/IIIa (setting [2]) were over 0.5 µM and 45 µM, respectively.

On to `COc1ccc(OC(=O)N[C@@H](Cc2nc3ccc(/C=C/CNC(=O)NCc4ccccc4)cc3c(=O)[nH]2)C(=O)O)cc1` [Compound 77, (αS)-3,4-dihydro-α-[[(4-methoxyphenoxy)carbonyl]amino]-4-oxo-6-[(1E)-3-[[[(phenylmethyl)amino]carbonyl]amino]-1-propenyl]-2-quinazolinepropanoic acid], for which the IC50 is over 0.5 µM on Human αvβ3 and 46 µM on GPIIb/IIIa.

As to `Cn1c(C(CC(=O)O)c2ccccc2)nc2ccc(C=CCNC3=NCCN3)cc2c1=O` [Compound 78, (βR,S)-3,4-dihydro-3-methyl-4-oxo-β-phenyl-6-[(1E)-3-[(4,5-dihydro-1H-imidazol-2-yl)amino]-1-propenyl]-2-quinazolinepropanoic acid], the IC50 at Human αvβ3 (setting [1]) came to 5.4 µM; on GPIIb/IIIa (setting [2]), 55 µM.

As to `C/C(=C\NC(=O)NC1CCCCC1)c1ccc2nc(C[C@H](NS(=O)(=O)c3c(C)c(C)c(C)c(C)c3C)C(=O)O)[nH]c(=O)c2c1` [Compound 79, 6-[(E)-2-[[(cyclohexylamino)carbonyl]amino]-1-methylethenyl]-(αS)-3,4-dihydro-4-oxo-α-[[(2,3,4,5,6-pentamethylphenyl)sulfonyl]amino]-2-quinazolinepropanoic acid], the IC50 at Human αvβ3 (setting [1]) was over 0.5 µM; on GPIIb/IIIa (setting [2]) it was 7.3 µM.

For the compound `Cc1coc(NC/C=C/c2ccc3nc(C[C@H](NS(=O)(=O)c4c(C)c(C)c(C)c(C)c4C)C(=O)O)[nH]c(=O)c3c2)n1` [Compound 81, (αS)-3,4-dihydro-6-[(1E)-3-[(4-methyl-2-oxazolyl)amino]-1-propenyl]-4-oxo-α-[[(2,3,4,5,6-pentamethylphenyl)sulfonyl]amino]-2-quinazolinepropanoic acid], the IC50 on Human αvβ3 (setting [1]) was over 5 µM; at GPIIb/IIIa (setting [2]), 7.1 µM.

For the compound `O=C(O)CCc1nc2ccc(/C=C/CNc3ccccn3)cc2c(=O)n1Cc1ccccc1` [Compound 82, 3,4-dihydro-4-oxo-3-(phenylmethyl)-6-[(1E)-3-(2-pyridinylamino)-1-propenyl]-2-quinazolinepropanoic acid], the IC50 was over 5 µM on Human αvβ3 (setting [1]) and over 50 µM at GPIIb/IIIa (setting [2]).
